# Literature values as cited in patent US20020193313A1, “Method of increasing the efficacy of chemotherapy in the treatment of tumors” (priority 2001, published 2002).
# Assays:
# [1] = tested on: locally advanced breast cancer; settings: Tamoxifen to induce cell phase arrest, then estrogen to stimulate growth, 43% without synchronization
# various types of cancer = settings: in vitro
# [2] = tested on: advanced stages of different types of cancer; settings: topotecan for S phase synchronization followed by doxorubicin
compound,measurement,setting,value
CC/C(=C(\c1ccccc1)c1ccc(OCCN(C)C)cc1)c1ccccc1 [Tamoxifen],patients whose tumors showed favorable response to phase specific chemotherapy,[1],approximately 82%
CC/C=C\C/C=C\C/C=C\CCCCCCCC(=O)O [alpha linoleic acid],effect on tumor growth,tumor growth,stimulate tumor growth
C[C@@]1(CO)[C@H](O)CC[C@@]2(C)[C@H]1CC[C@H]1C[C@@H]3C[C@@]12CC[C@]3(O)CO [aphidicoline],phase of cell cycle arrest,in vitro T-cell lymphoma,arrest late in the G1 phase
NC(=O)NO [hydrea],phase of cell cycle arrest,in vitro T-cell lymphoma,arrest in the S phase
NC(Cn1ccc(=O)c(O)c1)C(=O)O (stereo not shown) [mimosine],phase of cell cycle arrest,in vitro T-cell lymphoma,arrest in the G1 phase
COC(=O)Nc1nc2ccc(C(=O)c3cccs3)cc2[nH]1 [nocodazole],phase of cell cycle arrest,in vitro T-cell lymphoma,arrest in the M-phase
Cc1c(N)nc([C@H](CC(N)=O)NC[C@H](N)C(N)=O)nc1C(=O)N[C@H](C(=O)N[C@H](C)[C@@H](O)[C@H](C)C(=O)N[C@H](C(=O)NCCc1nc(-c2nc(C(=O)NCCCN[C@@H](C)c3ccccc3)cs2)cs1)[C@@H](C)O)[C@@H](O[C@@H]1O[C@@H](CO)[C@@H](O)[C@H](O)[C@@H]1O[C@H]1O[C@H](CO)[C@@H](O)[C@H](OC(N)=O)[C@@H]1O)c1c[nH]cn1 [peplomycin],cell cycle arrest,various types of cancer,arrest the cell cycle
C=C[C@H]1C[N@@]2CC[C@H]1C[C@@H]2[C@@H](O)c1ccnc2ccc(OC)cc12 [quinidine],phase of cell cycle arrest,in vitro breast cancer,arrest of in vitro breast cancer in the G1 phase
CC[C@@]1(O)C(=O)OCc2c1cc1n(c2=O)Cc2cc3c(CN(C)C)c(O)ccc3nc2-1 [topotecan],hematologic toxicity,[2],increased hematologic toxicity
epidermal growth factor,phase of cell cycle arrest,in vitro breast cancer,arrest of in vitro breast cancer in the G1 phase
